Tests used:
[1] = test system: KRAS G12D mutant human metastatic pancreatic cancer cell AsPc-1; assay: 3D cell proliferation inhibition assay, AsPc-1; assay type: cell-based; details: ASPC1, 168 h, AsPc-1, 7 days, CTG, numeric values
Source text: (§1) The inhibitory effects of the compounds on 3D cell proliferation were investigated on KRAS G12D mutant human lung cancer cell A427, KRAS G12D mutant human gastric cancer cell AGS, KRAS G12D mutant human metastatic pancreatic cancer cell AsPc-1, KRAS G12D mutant human pancreatic cancer cell Panc 04.03, KRAS G12D mutant human pancreatic cancer cell HPAC, KRAS G12V mutant human lung squamous cell carcinoma cell SW900, and KRAS WT human gastric cancer cell MKN1. The specific procedures were as follows:
(§2) 10 μL of each compound solution diluted in a gradient was added to corresponding wells of a 96-well low-adsorption microplate (PerkinElmer), so that the final concentrations of the test compounds in the reaction system were in a range of 10000-0.026 nM. The final concentration of DMSO was 0.2%. Then 90 µL of cells were correspondingly seeded into each well to achieve a cell density of 5×10^2 cells/well (the cell density of SW900 was 5×10^1 cells/well, and the cell density of MKN1 was 1×10^3 cells/well). In addition to test wells for the test compounds, both a DMSO control well and a medium control well were set, with the DMSO control well containing DMSO and cells and the medium well containing only a medium. After the sample loading, the 96-well low-adsorption microplate was incubated in an incubator at 37° C. with 5% carbon dioxide for 7 days. After 7 days, the microplate was taken out, and 100 μL of CTG reagent (Promega) was added to each well. The plate was incubated at room temperature for 60 min and read on a microplate reader EnVision by the chemiluminescence program. The inhibition rates of the compounds at each concentration were calculated using the formula for the percentage inhibition of cell proliferation: inhibition rate %=(mean value of DMSO control group−single concentration reading value of compound)/(mean value of DMSO control group−mean value of medium control group)×100. Then non-linear curve fittings for logarithmic concentration-inhibition rate were performed by GraphPad Prism 8, and the IC50 values of the compounds were obtained (Table 5).

[2] = test system: KRAS G12D mutant human pancreatic cancer cell HPAC; assay: 3D cell proliferation inhibition assay, HPAC; assay type: cell-based; details: 168 h, 7 days, CTG
Source text: as §1, §2

KRAS-G12D [3] = target: T1, KRAS-G12D (Homo sapiens, UniProt P01116, G12D); assay: KRAS-G12D degradation assay (Western Blot), AsPc-1 cells; assay type: cell-based; details: for DC50: 24 h; for Dmax: ASPC1, 24 h
T1 construct: endogenous in cells; host or cells: A-427 (ATCC), AGS, AsPc-1, Panc 04.03
T1 sequence (P01116 1-188 isoform P01116-2 G12D): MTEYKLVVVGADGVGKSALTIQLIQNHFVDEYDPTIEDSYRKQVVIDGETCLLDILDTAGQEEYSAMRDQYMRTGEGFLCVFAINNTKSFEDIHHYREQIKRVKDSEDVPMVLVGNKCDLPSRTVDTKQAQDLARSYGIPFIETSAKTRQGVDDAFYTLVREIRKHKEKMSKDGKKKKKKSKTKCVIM
Description: The degradation effects of the compounds on KRAS-G12D were investigated on KRAS G12D mutant human lung cancer cell A-427 (ATCC), KRAS G12D mutant human gastric cancer cell AGS, KRAS G12D mutant human metastatic pancreatic cancer cell AsPc-1, and KRAS G12D mutant human pancreatic adenocarcinoma cell Panc 04.03. The specific procedures were as follows: 0.95 mL of cells were seeded into each well of a 24-well cell culture plate to achieve a cell density of 5×10^5 cells/well; and the cell plate was incubated in an incubator at 37° C. with 5% CO2 overnight. Then 50 μL of the compound solution after dilution was added to each of the wells with the corresponding cells, so that the final concentration of the compound was in a range of 0.03-3000 nM. The final concentration of DMSO was 0.25%. After the compounds were added, the cell plate was incubated in the incubator at 37° C. with 5% CO2 for 24 h. The culture medium in the 24-well cell culture plate was removed, and the plate was washed twice with 1×PBS (KeyGEN). 120 μL of RIPA (strong) lysis buffer (Beyotime) supplemented with 1 mM phenylmethylsulfonyl fluoride, a protease inhibitor mixture (Beyotime), and a protease phosphatase inhibitor mixture (Beyotime) was added to lyse adherent A-427 cells at the bottom of the cell culture plate. After the plate was left to stand on ice for 30 min, the protein lysate in each well was transferred to a 1.5 mL centrifuge tube and centrifuged at 15000 g for 20 min at 4° C. The cell lysate supernatants after centrifugation were cryopreserved in a refrigerator at −80° C. for later use.
After the samples of the cell lysate supernatants that had been prepared were thawed from the refrigerator at −80° C., the total protein concentrations of the cell lysates were determined using a BCA protein quantification kit (Tiangen). The total protein concentrations of the samples were then adjusted to 0.5 μg/μL with PBS and 5×SDS-PAGE protein loading buffer (Beyotime), and the samples were incubated in a water bath at 100° C. for 15 min. The samples were then incubated in an ice bath for 5 min and centrifuged at 14000 g for 1 min at 4° C., and the supernatants were mixed well as loading samples for the Western Blot assay. The samples were loaded into wells of a 10% precast gel (KeyGEN) with a loading volume of 10 μL (total protein: 5 μg), a sufficient Tris-MOPS-SDS running buffer (Adamas) was added, and then electrophoresis was performed at a constant voltage of 120 V for 55 min. After the electrophoresis, the proteins on the gel were transferred to PVDF membranes at a constant current of 250 mA for 55 min. After the membrane transfer, the PVDF membranes were incubated in 1× Quick Block blocking buffer (Beyotime) at room temperature for 30 min. After the blocking, the PVDF membranes were separately incubated at 4° C. overnight with the KRAS antibody (Abcam) diluted in a ratio of 1:1000 and the […] antibody (Abcam) diluted in a ratio of 1:2000 in 5% BSA as the diluent, and then washed with 1×TBST buffer (2.4 g of Tris, 8.8 g of NaCl, 1.5 mL of Tween 20, with pH adjusted to 7.4, with the volume brought to 1 L) 3 times for 10 min/time. The membranes were incubated with a secondary antibody (Abcam) diluted in 5% BSA at room temperature for 2 h, and then washed with 1×TBST buffer 3 times for 10 min/time. Finally, the membranes were incubated with Clarity Western ECL Substrate (BIO-RAD) for 5 min for luminescence and color development, and a ChemiScope 6200 Touch chemiluminescence imaging system (Clinx) was used for color development and protein mapping. Gray value analysis of the protein maps was performed using the chemiluminescence analysis software (Clinx). The gray correction value for each sample was calculated using the formula: gray correction value=(gray value of target protein/gray value of corresponding internal reference)×10^3. Then degradation rates were calculated by comparison with the gray correction value of the control group. […]

[4] = test system: KRAS G12D mutant human gastric cancer cell AGS; assay: 3D cell proliferation inhibition assay, AGS; assay type: cell-based; details: 168 h, 7 days, CTG, numeric values
Method in brief: (§3)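 A 7-day 3D growth at 37 °C, 5% CO2, 5×10^2 cells/well, with final compound concentrations of 10000–0.026 nM and 0.2% DMSO. Read-out: CTG luminescence (60 min, room temperature); % inhibition against DMSO-treated cells and medium blank, fitted versus log concentration to give IC50.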

[5] = test system: KRAS G12D mutant human pancreatic cancer cell Panc 04.03; assay: 3D cell proliferation inhibition assay, Panc 04.03; assay type: cell-based; details: 168 h, Panc 04.03, 7 days, CTG, numeric values
Source text: as §1, §2

KRAS-G12D [6] = target: T1, KRAS-G12D; assay: KRAS-G12D degradation assay (Western Blot), A-427 cells; assay type: cell-based; details: A427 cells, 24 h, numeric values
Method in brief: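 Western blotting of lysates (5 μg protein) quantified KRAS against a β-actin reference after 24 h exposure to compound at final 0.03–3000 nM in 0.25% DMSO. Cells were A-427, AGS, AsPc-1 or Panc 04.03, all KRAS G12D, at 5×10^5/well. Degradation versus control yielded DC50 and Dmax.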

[7] = target: T2, Human KRAS G12D 6His-tagged (Homo sapiens, UniProt P01116, G12D); assay: KRAS-G12D/GTP binding assay (HTRF); details: numeric values
T2 construct: purchased PerkinElmer
T2 sequence (P01116 1-188 isoform P01116-2 G12D): as above
Method in brief: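 Compounds at 0.02-5000 nM final (0.5% DMSO) were tested for blocking GTP Red tracer binding to His-tagged KRAS G12D, detected by Eu-cryptate anti-His antibody after 1 h, 25° C. Inhibition taken from 665/620 nm ratio relative to control, then fitted to give IC50.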

[8] = test system: KRAS G12D mutant human lung cancer cell A427; assay: 3D cell proliferation inhibition assay, A427; assay type: cell-based; details: A-427, 168 h, A427, 7 days, CTG, numeric values
Method in brief: as §3

| Compound | IC50 [1] | IC50 [2] | DC50 (KRAS-G12D [3]) | Dmax (KRAS-G12D [3]) | IC50 [4] | IC50 [5] | DC50 (KRAS-G12D [6]) | Dmax (KRAS-G12D [6]; A-427) | IC50 [7] | IC50 [8] |
| --- | --- | --- | --- | --- | --- | --- | --- | --- | --- | --- |
| COc1ccc(C(=O)N2CCC3(CCC(CN4CCN(CC5(COc6nc(N7CC8CCC(C7)N8)c7cnc(-c8cc(O)cc(Cl)c8C8CC8)c(F)c7n6)CC5)CC4)CC3)CC2)cc1N1CCC(=O)NC1=O [Example 89] | 11.5 nM | 12.8 nM | 94.7 nM | 69% | 8.65 nM |  |  |  |  |  |
| [2H]C([2H])([2H])c1ccc(C(=O)N2CCC3(CCC(CN4CCN(CC5(COc6nc(N7CC8CCC(C7)N8)c7cnc(-c8cc(O)cc9ccc(F)c(C#C)c89)c(F)c7n6)CC5)CC4)CC3)CC2)cc1N1CCC(=O)NC1=O [Example 103, 1-(5-(9-((4-((1-(((4-(3,8-diazabicyclo[3.2.1]octan-3-yl)-7-(8-ethynyl-7-fluoro-3-hydroxynaphthalen-1-yl)-8-fluoropyrido[4,3-d]pyrimidin-2-yl)oxy)methyl)cyclopropyl)methyl)piperazin-1-yl)methyl)-3-azaspiro[5.5]undecane-3-carbonyl)-2-(methyl-d3)phenyl)dihydropyrimidine-2,4(1H,3H)-dione] | 1.41 nM | 1.58 nM |  |  | 4.35 nM | 16.8 nM |  |  |  |  |
| [2H]C([2H])(C1CCC2(CC1)CCN(C(=O)c1ccc(C)c(N3CCC(=O)NC3=O)c1)CC2)N1CCN(CC2(COc3nc(N4CC5CCC(C4)N5)c4ccc(-c5cc(O)cc6ccc(F)c(C#C)c56)c(F)c4n3)CC2)CC1 [Example 107, 1-(5-(9-((4-((1-(((4-(3,8-diazabicyclo[3.2.1]octan-3-yl)-7-(8-ethynyl-7-fluoro-3-hydroxynaphthalen-1-yl)-8-fluoroquinazolin-2-yl)oxy)methyl)cyclopropyl)methyl)piperazin-1-yl)methyl-d2)-3-azaspiro[5.5]undecane-3-carbonyl)-2-methylphenyl)dihydropyrimidine-2,4(1H,3H)-dione] | 27.5 nM | 10.8 nM | 13.7 nM | 97.5% |  |  | 4.98 nM | 94.7% |  |  |
| C#Cc1c(F)ccc2cc(O)cc(-c3ncc4c(N5CC6CCC(C5)N6)nc(OCC(C)CN5CCN(CC6CCC7(CC6)CCN(C(=O)c6ccc(C)c(N8CCC(=O)NC8=O)c6)CC7)CC5)nc4c3F)c12 (centres unmarked) [Example 108, 1-(5-(9-((4-(3-((4-(3,8-diazabicyclo[3.2.1]octan-3-yl)-7-(8-ethynyl-7-fluoro-3-hydroxynaphthalen-1-yl)-8-fluoropyrido[4,3-d]pyrimidin-2-yl)oxy)-2-methylpropyl)piperazin-1-yl)methyl)-3-azaspiro[5.5]undecane-3-carbonyl)-2-methylphenyl)dihydropyrimidine-2,4(1H,3H)-dione] | 4.53 nM | 6.87 nM |  |  |  |  |  |  | 3.22 nM |  |
| C#Cc1c(F)ccc2cc(O)cc(-c3ccc4c(N5CC6CCC(C5)N6)nc(OC[C@H](C)CN5CCN(CC6CCC7(CC6)CCN(C(=O)c6ccc(OC)c(N8CCC(=O)NC8=O)c6)CC7)CC5)nc4c3F)c12 [Example 207, 1-(5-(9-((4-((R)-3-((4-(3,8-diazabicyclo[3.2.1]octan-3-yl)-7-(8-ethynyl-7-fluoro-3-hydroxynaphthalen-1-yl)-8-fluoroquinazolin-2-yl)oxy)-2-methylpropyl)piperazin-1-yl)methyl)-3-azaspiro[5.5]undecane-3-carbonyl)-2-methoxyphenyl)dihydropyrimidine-2,4(1H,3H)-dione] | 16.1 nM |  | 15.1 nM | 99.7% | 11.2 nM | 34.5 nM |  |  |  |  |
| C#Cc1c(F)ccc2cc(O)cc(-c3ncc4c(N5CC6CCC(C5)N6)nc(OC[C@@H](C)CN5CCN(CC6CCC7(CC6)CCN(C(=O)c6ccc(OC)c(N8CCC(=O)NC8=O)c6)CC7)CC5)nc4c3F)c12 [Example 254, 1-(5-(9-((4-((S)-3-((4-(3,8-diazaspirobicyclo[3.2.1]octan-3-yl)-7-(8-ethynyl-7-fluoro-3-hydroxynaphthalen-1-yl)-8-fluoropyrido[4,3-d]pyrimidin-2-yl)oxy)-2-methylpropyl)piperazin-1-yl)methyl)-3-azaspiro[5.5]undecane-3-carbonyl)-2-methoxyphenyl)dihydropyrimidine-2,4(1H,3H)-dione] | 7.85 nM | 14.3 nM | 32.5 nM | 83.4% | 13 nM |  |  |  |  | 74.7 nM |

— patent publication US20260166159A1, “KRAS G12D DEGRADATION AGENT, AND PREPARATION METHOD AND USE THEREFOR” (LEADINGTAC PHARMACEUTICAL (SHAOXING) CO., LTD., priority 2022, published 2026)
